Data: patent publication EP0837870B1, “SYNTHETIC MODIFICATION TO SPINOSYN COMPOUNDS” (Dow AgroSciences LLC, priority 1995, dated 1997)

Assays:
Assay type in all cases: in vivo
[1] = test system: Stomoxys calcitrans (stable fly); experiment: Adult stable fly test, serum-saturated dental wick; conditions: readings at 24 and 48 hours, which one is reported is not stated; for Percentage of ASF killed at 10 ppm: 10 ppm in bovine serum; for Percentage of ASF killed at 100 ppm: 100 ppm in bovine serum
Description: (§1) The compound to be evaluated was dissolved in 1 part acetone/1 part ethanol to provide a stock solution of the compound at a concentration of 5,000 ppm; this solution was shaken for 15 minutes on a sonicator. Portions of the stock solution were placed in 15 ml test tubes, and portions of bovine serum were added to provide the desired dilution of the test compound. A dental wick was placed in each test tube and the serum allowed to saturate the wick.
For the adult stable fly test, the saturated wick was placed on a filter paper in a petri dish, and approximately 10 chilled live, hungry stable flies were placed on the center of the dish bottom. The dish was covered and allowed to incubate at 27°C and 60% relative humidity for 48 hours. Mortality readings were made at each of 24 and 48 hours, and adjusted for any mortality in the vehicle control to determine percent efficacy against adult stable fly.

[2] = test system: Phormia regina (blow fly); experiment: Blow fly larvae test, serum-saturated dental wick; conditions: 24 and 48 hours, which one is reported is not stated; for Percentage of LBF killed at 10 ppm: 10 ppm in bovine serum; for Percentage of LBF killed at 100 ppm: 100 ppm in bovine serum
Description: as §1
For the blow fly test, approximately 20 blow fly larvae were placed onto the top center of the saturated dental wick, and the test tube was plugged with cotton and incubated at 27°C and 70% humidity for 24 and 48 hours. Larval mortality counts were then made, and adjusted for any mortality in the vehicle control, to determine percent efficacy against blow fly.

[3] = test system: tobacco budworm (Heliothis virescens); experiment: Activity against tobacco budworm (TBW), sprayed diet cups with eggs; conditions: for mortality at 400 µg/mL: Heliothis virescens, 144 h
Description: (§2) In conducting evaluations of insecticidal activity, each test compound was formulated as a 400 ppm solution, and this solution was then diluted with water to give lesser concentrations. The 400 ppm solution was prepared by combining 19.2 mL of .05% solution of Tween 20 (polyoxyethylene (20) sorbitan monolaurate) in water with a solution of 8 mg of the compound in .8 mL of acetone/EtOH (9/1).
Activity against tobacco budworm (Heliothis virescens) was evaluated as follows. A general purpose lepidoptera artificial diet was diluted to half strength with a 5% non nutritive agar. 8 mL of this diet material was dispensed into each one ounce diet cup. One hour prior to treatment 18 to 20 eggs were dispensed onto the diet surface. The cups were then sprayed with formulated material through a flat-fan nozzle. […] Treated cups were air dried prior to sealing with plastic caps. The cups were held for 6 days at room temperature. Activity was then rated based on the total number of live and dead larvae, and on the size of live larvae.

[4] = test system: beet armyworm (Spodoptera exiqua); experiment: Activity against beet armyworm (BAW), sprayed diet cups with eggs
Description: as §2
Activity against beet armyworm (Spodoptera exiqua) was evaluated as follows. The test is run using concentrations of 400 ppm and 50 ppm. A general purpose lepidoptera artificial diet was diluted to half strength with a 5% non nutritive agar. 8 mL of this diet material was dispensed into one ounce diet cups. One hour prior to treatment, 35 to 40 eggs were dispensed onto the diet surface. The cups were then sprayed with formulated material through a flat-fan nozzle. Treated cups were air dried prior to sealing with plastic caps. The cups were held for 6 days at room temperature. Activity was then rated based on the total number of live and dead larvae, and on the size of live larvae.

[5] = test system: two spotted spider mite (Tetranychus urticae); experiment: Activity against two spotted spider mite (TSSM), sprayed infested squash plants; conditions: RATE 400 (ppm), three days after treatment; for mortality at 400 µg/mL: Tetranychus urticae, 72 h; for % MORTALITY: 4320 min
Description: as §2
Activity against cotton aphid (Aphis gossypii) and two spotted spider mite (Tetranychus urticae) was evaluated as follows. Golden crookneck squash plants were grown to the expanded cotyledon stage (about 6 to 8 days). The plants were infested with cotton aphids and two spotted spider mites 16 to 24 hours before application of the test material by transfer of infested foliage cut from a stock colony. Immediately prior to spray application of the test material the transfer foliage is removed from the squash plants. The test is run using concentrations of 400 ppm and 50 ppm. The plants are sprayed with test solution using an atomizing sprayer at 17 psi. Both surfaces of the leaves are covered until runoff, and then allowed to dry. Activity of each compound was determined three days after treatment. Activity was rated as a percent based on the mites/aphids present in plants sprayed with solvent alone.

[6] = test system: peanut root knot nematode (Meloidogyne arenaria); experiment: Activity against peanut root knot nematode, sprayed sand with cucumber seeds; conditions: NEMA, RATE 400 (ppm), 10 to 12 days
Description: as §2
Activity against peanut root knot nematode (Meloidogyne arenaria) was evaluated as follows. Five untreated cucumber seeds are placed into the bottom of a clear one ounce cup, 20 g of clean white sand is added, and the cups were sprayed while rotating on a pedestal allowing 1.0 mL of a 400 ppm solution to be deposited on the sand. To each cup was dispensed 2.5 to 3.0 mL of deionized water containing 300 to 500 nematodes. The cups were held for 10 to 12 days in an environmental growth chamber at a temperature of 76 to 85°F and ambient humidity of 50 to 60%. After 10 to 12 days the cups were evaluated by inverting the cup and observing nematode mortality and feeding damage to the cucumber plants.

[7] = RATE 64 (unit not given), 8640 min

Row | Compound | Percentage of ASF killed at 10 ppm [1] [%] | Percentage of LBF killed at 10 ppm [2] [%] | % MORTALITY ([3]; RATE 400 (ppm), 6 days) [%] | other results
1 | CC[C@H]1CCC[C@H](O[C@H]2CC[C@H](N(C)C)[C@@H](C)O2)[C@@H](C)C(=O)C2=C[C@H]3[C@@H]4C[C@H](O[C@@H]5O[C@@H](C)[C@H](OC)[C@@H](OC)[C@H]5OC)C[C@H]4[C@@H](Br)[C@H](OC(C)=O)[C@H]3[C@@H]2CC(=O)O1 [Example F4b, (5R,6R)-5-Acetoxy-6-bromo-5,6-dihydro Spinosyn A] | 60 | < 50 | – | mortality at 400 µg/mL ([3]; RATE 400 (ppm), 6 days): 100%
2 | 5,6-Dihydro Spinosyn A 17-Psa [Example F20] | – | – | – | % MORTALITY ([4]; RATE 400 (ppm), 6 days): 100%
3 | CC[C@H]1CCC[C@H](O[C@H]2CC[C@H](N(C)C)[C@@H](C)O2)[C@@H](C)C(=O)C2=C[C@H]3[C@@H]4C[C@H](O[C@@H]5O[C@@H](C)[C@H](OC)[C@@H](OC)[C@H]5OC)C[C@H]4[C@H](Br)[C@@H](OC(C)=O)[C@H]3[C@@H]2CC(=O)O1 [Example F4a, (5S,6S)-5-Acetoxy-6-bromo Spinosyn A] | 90 | <50 | – | mortality at 400 µg/mL ([3]; RATE 400 (ppm), 6 days): 100%
4 | CC[C@H]1CCC[C@H](O[C@H]2CC[C@H](N(C)C)[C@@H](C)O2)[C@@H](C)C(=O)C2=C[C@H]3[C@@H]4C[C@H](O[C@@H]5O[C@@H](C)[C@H](OC)[C@@H](OC)[C@H]5OC)C[C@H]4CC[C@H]3[C@@H]2CC(=O)O1 [Example F6, 5,6-Dihydro Spinosyn A] | 100 | – | – | mortality at 400 µg/mL [5]: 100%; Percentage of LBF killed at 100 ppm [2]: 100%; % MORTALITY [3, 7]: 100%
5 | CC[C@H]1CCC[C@H](O[C@H]2CC[C@H](N(C)C)[C@@H](C)O2)[C@@H](C)C(=O)[C@H]2C[C@@H]3[C@@H](CC[C@@H]4C[C@@H](O[C@@H]5O[C@@H](C)[C@H](OC)[C@@H](OC)[C@H]5OC)C[C@H]43)[C@@H]2CC(=O)O1 [Example D1, (14S)-5,6,13,14-Tetrahydro Spinosyn A] | 100 | <50 | – | % MORTALITY ([3]; RATE 80 (unit not given), 8640 min): 90%
6 | (5R,6R)-5,6-dibromo-4''-keto Spinosyn A [Example F11a] | – | – | – | % MORTALITY ([4]; RATE 56 (unit not given)): 80%
7 | CCC1CCCC(OC2CCC(N(C)C)C(C)O2)C(C)C(=O)C2=CC3C4CC(OC5OC(C)C(OC)C(OC)C5OC)CC4[C@]4(C)O[C@@H]4C3C2CC(=O)O1 (stereo partly drawn) [Example F8b, (5R,6S)-Epoxy Spinosyn D] | 100 | – | 100 | % MORTALITY [5]: 90%; Percentage of LBF killed at 100 ppm [2]: 100%
8 | CC[C@H]1CCC[C@H](O[C@H]2CC[C@H](N(C)C)[C@@H](C)O2)[C@@H](C)C(=O)C2=C[C@H]3[C@@H]4C[C@H](O[C@@H]5O[C@@H](C)[C@H](OC)[C@@H](OC)[C@H]5OC)C[C@H]4[C@@H](O)[C@@H](O)[C@H]3[C@@H]2CC(=O)O1 [Example F2, (5S,6R)-5,6-Dihydroxy-5,6-dihydro Spinosyn A] | <50 | <50 | – | mortality at 400 µg/mL ([3]; RATE 400 (ppm), 6 days): 100%
9 | CC[C@H]1CCC[C@H](O[C@H]2CC[C@H](N(C)C)[C@@H](C)O2)[C@@H](C)C(=O)C2=C[C@H]3[C@@H]4C[C@H](O[C@@H]5O[C@@H](C)[C@H](OC)[C@@H](OC)[C@H]5OC)C[C@H]4[C@H]4OC(=O)O[C@H]4[C@H]3[C@@H]2CC(=O)O1 [Example F3, (5S,6R)-Spinosyn A carbonate] | <50 | <50 | – | % MORTALITY [3, 7]: 24%
10 | CCC1CCCC(O)C(C)C(=O)C2=CC3C4CC(OC5OC(C)C(OC)C(OC)C5OC)CC4C4OC4C3C2CC(=O)O1 [Example E3, (5S,6R)-5,6-Epoxy Spinosyn A 17-Psa] | – | – | – | % MORTALITY [6]: 100%
11 | CCC1CCCC(OC2CCC(N(C)C)C(C)O2)C(C)C(=O)C2=CC3C4CC(OC5OC(C)C(OC)C(OC)C5OC)CC4[C@H]4O[C@H]4C3C2CC(=O)O1 (stereo partly drawn) [Example F7a, (5S,6R)-5,6-Epoxy Spinosyn A] | 100 | 90 | 100 | % MORTALITY [5]: 90%
12 | CCCOC1C(OC)C(C)OC(OC2CC3CCC4C5CC(=O)OC(CC)CCCC(OC6CCC(N(C)C)C(C)O6)C(C)C(=O)C5=CC4C3C2)C1OC.CCCOC1C(OC)C(C)OC(OC2CC3CCC4C5CC(=O)OC(CC)CCCC(OC6CCC(N(C)C)C(C)O6)C(C)C(=O)C5=CC4C3C2)C1OC.O=C(O)CCCC(=O)O (stereo not drawn) [Example A6, 5,6-Dihydro-3'-O-n-propyl Spinosyn J Hemiglutarate salt] | – | – | 100 | % MORTALITY [5]: 100%; Percentage of ASF killed at 100 ppm [1]: 100%
13 | CC[C@H]1CCC[C@H](O)[C@@H](C)C(=O)C2=C[C@H]3[C@@H]4C[C@H](O[C@@H]5O[C@@H](C)[C@H](OC)[C@@H](OC)[C@H]5OC)C[C@H]4[C@@H](Br)[C@H](OCCO)[C@H]3[C@@H]2CC(=O)O1 [Example E1, (5R,6R)-5-(2-Hydroxyethoxy)-6-bromo Spinosyn A 17-Psa] | – | <50 | – | mortality at 400 µg/mL [5]: 60%; mortality at 400 µg/mL ([3]; RATE 400 (ppm), 6 days): 100%
14 | CCC1CCCC(OC2CCC(N(C)C)C(C)O2)C(C)C(=O)C2=CC3C4CC(OC5OC(C)C(OC)C(OC)C5OC)CC4[C@@H](Br)[C@H](OCCO)C3C2CC(=O)O1 (stereo partly drawn) [Example F1, (5R,6R)-5-(2-Hydroxyethoxy)-6-bromo Spinosyn A] | 60 | 90 | 100 | –
15 | CCCOC1C(OC2CC3CCC4C5CC(=O)OC(CC)CCCC(OC6CCC(N(C)C)C(C)O6)C(C)C(=O)C5=CC4C3C2)OC(C)C(OC)C1OC (stereo not drawn) [Example A8, 5,6-Dihydro-2'-O-n-propyl Spinosyn H] | – | – | 100 | % MORTALITY [5]: 100%; Percentage of ASF killed at 100 ppm [1]: 100%
16 | CC[C@H]1CCC[C@H](O[C@H]2CC[C@H](NC)[C@@H](C)O2)[C@@H](C)C(=O)C2=C[C@H]3[C@@H]4C[C@H](O[C@@H]5O[C@@H](C)[C@H](OC)[C@@H](OC)[C@H]5OC)C[C@H]4CC[C@H]3[C@@H]2CC(=O)O1 [Example F24, 5,6-Dihydro Spinosyn B] | – | – | 100 | % MORTALITY [5]: 100%; Percentage of ASF killed at 100 ppm [1]: 100%
17 | CCC1CCCC(OC2CCC(N(C)C)C(C)O2)C(C)C(=O)C2=CC3C4CC(OC5OC(C)C(OC)C(OC)C5OC)CC4[C@@H]4O[C@@H]4C3C2CC(=O)O1 (stereo partly drawn) [Example F7b, (5R,6S)-Epoxy Spinosyn A] | 100 | 100 | 100 | –
